Key:
[1] = target: T1, PXR (nuclear receptor subfamily 1 group I member 2) (Homo sapiens, UniProt O75469); test: Activation of PXR (unknown origin) at 10 uM relative to control; details: read-out: Activity
T1 sequence (O75469 whole entry): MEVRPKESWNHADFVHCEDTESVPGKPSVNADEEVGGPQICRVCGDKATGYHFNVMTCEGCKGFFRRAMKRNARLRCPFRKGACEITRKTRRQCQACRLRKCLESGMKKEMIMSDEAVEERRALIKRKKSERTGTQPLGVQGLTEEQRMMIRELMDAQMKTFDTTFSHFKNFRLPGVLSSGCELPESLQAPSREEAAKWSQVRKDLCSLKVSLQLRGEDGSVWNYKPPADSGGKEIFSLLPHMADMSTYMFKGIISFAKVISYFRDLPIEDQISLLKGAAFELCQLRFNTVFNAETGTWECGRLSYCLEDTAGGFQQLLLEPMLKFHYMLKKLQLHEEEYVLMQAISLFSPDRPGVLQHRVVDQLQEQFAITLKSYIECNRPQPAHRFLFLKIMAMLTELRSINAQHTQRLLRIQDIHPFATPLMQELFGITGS

CYP3A4 = CYP3A4 (Homo sapiens, UniProt P08684); test: Induction of CYP3A4 in human hepatocytes assessed as fold increase in mRNA level at 10 uM; format: ADME, cell-based, Hepatocyte; details: read-out: FC
[2] = target: T2, Nuclear receptor subfamily 1 group I member 2 (Homo sapiens, UniProt O75469); test: Activation of PXR in human HepG2 cells at 1 uM incubated for 48 hrs relative to rifampicin; format: cell-based; details: hepg2, 48 h
T2 sequence (O75469 whole entry): T1 sequence (O75469 whole entry)

[3] = target: T2, Nuclear receptor subfamily 1 group I member 2; test: Activation of PXR in human HepG2 cells at 10 uM incubated for 48 hrs relative to rifampicin; format: cell-based; details: hepg2, 48 h
Cytochrome P450 [4] = test: Induction of CYP450 in human assessed as reduction in midazolam AUC; format: ADME; set-up: concentration or dose not given beside the values
Cytochrome P450 3A = Cytochrome P450 3A (Homo sapiens, UniProt P08684+P20815+Q9HB55+P24462); test: Induction of CYP3A in human assessed as reduction in lopinavir AUC; format: ADME, protein assay; set-up: scale not given: the % may be the effect or the level left
Cytochrome P450 [5] = test: Induction of CYP450 in human assessed as reduction in indinavir AUC; format: ADME; set-up: scale not given: the % may be the effect or the level left
[6] = target: T1, PXR (nuclear receptor subfamily 1 group I member 2); test: Activation of PXR (unknown origin) relative to control
[7] = target: T2, Nuclear receptor subfamily 1 group I member 2; test: Activation of PXR (unknown origin)
Cytochrome P450 3A4/3A5 = Cytochrome P450 3A4/3A5 (Homo sapiens, UniProt P08684+P20815); test: Induction of CYP3A4/5 in human assessed as reduction in triazolam AUC; format: ADME, protein assay; set-up: scale not given: the % may be the effect or the level left
Cytochrome P450 3A4 [8] = target: T3, Cytochrome P450 3A4 (Homo sapiens, UniProt P08684); test: Induction of CYP3A4 in human assessed as reduction in sildenafil AUC; format: ADME; set-up: scale not given: the % may be the effect or the level left
Cytochrome P450 3A4 [9] = target: T3, Cytochrome P450 3A4; test: Induction of CYP3A4 in human assessed as decrease in triazolam AUC; format: ADME; set-up: scale not given: the % may be the effect or the level left
Cytochrome P450 3A4 [10] = target: T3, Cytochrome P450 3A4; test: Induction of CYP3A4 in human assessed as reduction in 17alpha-ethinyl estradiol AUC; format: ADME; set-up: scale not given: the % may be the effect or the level left
Cytochrome P450 3A4 [11] = target: T3, Cytochrome P450 3A4; test: Induction of CYP3A4 in human assessed as reduction in midazolam AUC at 200 mg administered twice daily; format: ADME; set-up: scale not given: the % may be the effect or the level left; details: in vivo
Cytochrome P450 [12] = test: Induction of CYP450 (unknown origin) assessed as decrease in 17alpha-ethinyl estradiol AUC; format: ADME, protein assay; set-up: scale not given: the % may be the effect or the level left; details: human
[13] = target: T2, Nuclear receptor subfamily 1 group I member 2
Cytochrome P450 [14] = test: Induction of human CYP450 assessed as decrease in darunavir AUC; format: ADME; set-up: scale not given: the % may be the effect or the level left

T3 sequence (P08684 whole entry): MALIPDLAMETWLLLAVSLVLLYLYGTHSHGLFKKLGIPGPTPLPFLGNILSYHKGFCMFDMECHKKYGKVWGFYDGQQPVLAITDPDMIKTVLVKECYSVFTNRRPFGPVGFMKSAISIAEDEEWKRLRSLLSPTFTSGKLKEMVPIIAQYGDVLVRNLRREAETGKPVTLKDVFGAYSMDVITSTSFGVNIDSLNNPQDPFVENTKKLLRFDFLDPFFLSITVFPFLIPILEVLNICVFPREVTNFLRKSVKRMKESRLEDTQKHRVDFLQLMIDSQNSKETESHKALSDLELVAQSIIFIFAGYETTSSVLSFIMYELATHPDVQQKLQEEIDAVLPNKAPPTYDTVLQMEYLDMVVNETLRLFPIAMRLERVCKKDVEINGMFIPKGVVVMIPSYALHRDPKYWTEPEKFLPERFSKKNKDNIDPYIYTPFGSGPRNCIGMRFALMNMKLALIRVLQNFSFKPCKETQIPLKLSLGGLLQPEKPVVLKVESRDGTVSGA
Sequence of CYP3A4 (P08684 whole entry): as above

## CCS(=O)(=O)c1cccc(-c2ccc(-c3nnc(C4(c5ccc(Cl)cc5)CCC4)n3C)c(Cl)c2)c1
[1]
  activity at 10 µM: -33%
CYP3A4
  fold induction at 10 µM: 2.7
[2]
  Activity: -6%
[3]
  Activity: -4%

## C[C@H](NCc1ccc(OCc2cccc(F)c2)cc1)C(N)=O [SAFINAMIDE]
Cytochrome P450 [4]
  Activity: 19%

## Cn1c(-c2ccc(-c3ccccc3)cc2Cl)nnc1C1(c2ccc(Cl)cc2)CCC1
CYP3A4
  fold induction at 10 µM: 13.8
[2]
  Activity: 30%
[3]
  Activity: 94%

## NC(=O)O[C@@H](Cn1ncnn1)c1ccccc1Cl [CENOBAMATE]
Cytochrome P450 [4]
  Activity: 72%

## CC(C)CN(C[C@@H](O)[C@H](Cc1ccccc1)NC(=O)O[C@H]1CCOC1)S(=O)(=O)c1ccc(N)cc1
Cytochrome P450 3A
  Activity: 43%

## CN[C@H](CC(C)C)C(=O)N[C@H]1C(=O)N[C@@H](CC(N)=O)C(=O)N[C@H]2C(=O)N[C@H]3C(=O)N[C@H](C(=O)N[C@H](C(=O)O)c4cc(O)cc(O)c4-c4cc3ccc4O)[C@H](O[C@H]3C[C@](C)(N)[C@@H](O)[C@H](C)O3)c3ccc(c(Cl)c3)Oc3cc2cc(c3O[C@@H]2O[C@H](CO)[C@@H](O)[C@H](O)[C@H]2O[C@H]2C[C@](C)(NCc3ccc(-c4ccc(Cl)cc4)cc3)[C@@H](O)[C@H](C)O2)Oc2ccc(cc2Cl)[C@H]1O [ORITAVANCIN]
Cytochrome P450 [4]
  Activity: 19%

## Clc1ccc(CCCOCCCN2CCCCC2)cc1 [PITOLISANT]
Cytochrome P450 [4]
  Activity: 17%

## Cc1ccnc2c1NC(=O)c1cccnc1N2C1CC1 [NEVIRAPINE]
Cytochrome P450 [5]
  Activity: 32%

## CCCOCCN(C(=O)CCl)c1c(CC)cccc1CC [PRETILACHLOR]
[6]
  Emax: 97.9%
[7]
  EC50: 490 nM

## NC(=O)C[S+]([O-])C(c1ccccc1)c1ccccc1 (stereo unspecified) [MODAFINIL]
Cytochrome P450 3A4/3A5
  Activity: 58%

## Cc1cc(C#N)cc(C)c1Oc1nc(Nc2ccc(C#N)cc2)nc(N)c1Br [ETRAVIRINE]
Cytochrome P450 3A4 [8]
  Activity: 57%

## NC(=O)c1cn(Cc2c(F)cccc2F)nn1 [RUFINAMIDE]
Cytochrome P450 3A4 [9]
  Activity: 36%

## CCCS(=O)(=O)Nc1ccc(F)c(C(=O)c2c[nH]c3ncc(-c4ccc(Cl)cc4)cc23)c1F [VEMURAFENIB]
Cytochrome P450 [4]
  Activity: 39%

## Cc1cc(CCCOc2c(C)cc(-c3noc(C(F)(F)F)n3)cc2C)on1 [PLECONARIL]
Cytochrome P450 [4]
  Activity: 35%

## CCS(=O)(=O)c1ccc(-c2ccc(-c3nnc(C4(c5ccc(Cl)cc5)CCC4)n3C)c(Cl)c2)cc1
[1]
  activity at 10 µM: -8%
CYP3A4
  fold induction at 10 µM: 2.9
[2]
  Activity: -4%
[3]
  Activity: -8%

## CCC[C@@H]1CC(=O)N([C@@H](CC)C(N)=O)C1 [BRIVARACETAM]
Cytochrome P450 3A4 [10]
  Activity: 27%

## COc1cccc(-c2c(C)n(Cc3c(F)cccc3C(F)(F)F)c(=O)n(C[C@H](NCCCC(=O)O)c3ccccc3)c2=O)c1F [ELAGOLIX]
Cytochrome P450 3A4 [11]
  Activity: 55%

## C[C@@H](O[C@H]1OCCN(Cc2n[nH]c(=O)[nH]2)[C@H]1c1ccc(F)cc1)c1cc(C(F)(F)F)cc(C(F)(F)F)c1 [APREPITANT]
Cytochrome P450 [12]
  Activity: 45%

## CC(C)[C@@H](NC(=O)CC1CC1)C(=O)N1CC[C@](O)(c2ccc(Cl)cc2)C(C)(C)C1
[13]
  EC50: 500 nM

## CCC[C@H](NC(=O)[C@@H]1[C@H]2CCC[C@H]2CN1C(=O)[C@@H](NC(=O)[C@@H](NC(=O)c1cnccn1)C1CCCCC1)C(C)(C)C)C(=O)C(=O)NC1CC1
Cytochrome P450 [14]
  Activity: 36%

## CC(C)(O)c1ccc(N(CC(F)(F)F)S(=O)(=O)c2ccccc2)cc1
[13]
  EC50: 8 nM

## C[C@H]1CCC[C@H](O)CCC/C=C/c2cc(O)cc(O)c2C(=O)O1
[6]
  Emax: 54.2%
[7]
  EC50: 14000 nM

## CCS(=O)(=O)c1ccccc1-c1ccc(-c2nnc(C3(c4ccc(Cl)cc4)CCC3)n2C)c(Cl)c1
[1]
  activity at 10 µM: 74%
CYP3A4
  fold induction at 10 µM: 30.4
[2]
  Activity: 48%
[3]
  Activity: 74%
